Experimental data taken from PubChem BioAssay AID743090 (Broad Institute, 2013).
Activity calls are given as the source filed them.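 Rule for the calls: active = IC50 below 10 µM in A549 cells, with the call taken as the median across tests; inactive = IC50 above 10 µM in A549 cells.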

Each molecule was assayed on A549 viability, CellTiter-Glo luminescence, 48 h (assay: A549 cell killing, TP53 wild-type line, dose response, selectivity assay for TP53-mutant selective toxicity project, CellTiter-Glo luminescence, dry powder (AID 743090)).
In the case of `CC1CC(=O)NN=C1c1ccc(F)c(F)c1` (stereo not drawn), the IC50 is reported as > 10 µM (inactive).
For `C/C=C/c1ccc(C2=NNC(=O)C[C@H]2C)cc1`, the IC50 was > 10 µM (inactive).
For `C[C@@H]1CC(=O)NN=C1c1ccc(N2CCCCS2(=O)=O)cc1`, the IC50 was > 10 µM (inactive).
For `CC(=O)N1CCN(c2ccc(C3=NNC(=O)CC3C)cc2F)CC1` (stereo not drawn), the IC50 was > 10 µM (inactive).
For `CCN(CC)c1ccc(C2=NNC(=O)C[C@H]2C)cc1`, the IC50 was > 10 µM (inactive).
`CCN(CC)c1ccc(C2=NNC(=O)CC2C)cc1N` (stereo not drawn) was tested, and the IC50 was > 10 µM (inactive).
In the case of `C[C@@H]1CC(=O)NN=C1c1ccccc1`, the IC50 is reported as > 10 µM (inactive).
In the case of `C[C@@H]1CC(=O)NN=C1c1ccc(N2CCCCC2=O)cc1`, the IC50 is reported as > 10 µM (inactive).
With `CC(=O)Nc1ccc(C2=NNC(=O)CC2C)cc1` (stereo not drawn) the IC50 was > 10 µM (inactive).
With `CC1CC(=O)NN=C1c1cccs1` (stereo not drawn) the IC50 was > 10 µM (inactive).
For `CC1(C)C(=O)NN=C1c1ccc(N2CCOCC2)cc1`, the IC50 was > 10 µM (inactive).
With `CCN1N=C(c2ccc(N(CC)CC)cc2)[C@H](C)CC1=O` the IC50 was > 10 µM (inactive).
With `C[C@@H]1CC(=O)NN=C1c1ccc(N)c([N+](=O)[O-])c1` the IC50 was > 10 µM (inactive).
For `CC1C(=O)NN=C1c1ccc([N+](=O)[O-])cc1` (stereo not drawn), the IC50 was > 10 µM (inactive).
With `CCN(CC)c1ccc(C2=NNC(=O)CC2C)cc1` (stereo not drawn) the IC50 was > 10 µM (inactive).
For `CCN(CC)c1ccc(C2=NNC(=O)CC2C)cc1[N+](=O)[O-]` (stereo not drawn), the IC50 was > 10 µM (inactive).
In the case of `CCCc1ccc(C2=NNC(=O)C[C@H]2C)cc1`, the IC50 is reported as > 10 µM (inactive).
In the case of `C#Cc1cc(C2=NNC(=O)C[C@H]2C)ccc1NC(C)=O`, the IC50 is reported as > 10 µM (inactive).
`C[C@@H]1CC(=O)NN=C1c1ccc(C2CCCCC2)cc1` was tested, and the IC50 was > 10 µM (inactive).
With `Cc1nc2ccc(C3=NNC(=O)C[C@H]3C)cc2[nH]1` the IC50 was > 10 µM (inactive).
For `CCNc1ccc(C2=NNC(=O)C[C@H]2C)cc1`, the IC50 was > 10 µM (inactive).
In the case of `CCN(CC)c1ccc(C2=NNC(=O)C[C@H]2C)cc1[N+](=O)[O-]`, the IC50 is reported as > 10 µM (inactive).
For `C[C@@H]1CC(=O)NN=C1c1ccc(Cl)cc1`, the IC50 was > 10 µM (inactive).
In the case of `CC1CC(=O)NN=C1c1ccc(N2CCN(C(=O)Cc3ccc(Cl)cc3Cl)CC2)cc1` (stereo not drawn), the IC50 is reported as > 10 µM (inactive).
In the case of `C[C@@H]1CC(=O)NN=C1c1ccc(F)c(F)c1`, the IC50 is reported as > 10 µM (inactive).
`C[C@@H]1CC(=O)NN=C1c1ccc(-n2cnnc2)cc1` was tested, and the IC50 was > 10 µM (inactive).
For `C[C@@H]1CC(=O)NN=C1c1ccc(N2CCCC2=O)cc1`, the IC50 was > 10 µM (inactive).
With `C[C@@H]1CC(=O)NN=C1c1ccc(F)cc1` (racemic) the IC50 was > 10 µM (inactive).
`O=C1C[C@H]2CCc3cc(N4CCOCC4)ccc3C2=NN1` (racemic) was tested, and the IC50 was > 10 µM (inactive).
`CCN(CC)c1ccc(C2=NNC(=O)CC2C)cc1NC(C)=O` (stereo not drawn) was tested, and the IC50 was > 10 µM (inactive).
For `C[C@@H]1CC(=O)NN=C1c1ccc(-c2cncnc2)cc1`, the IC50 was > 10 µM (inactive).
`C[C@H]1CC(=O)NN=C1c1ccc(N2CCOCC2)c(F)c1` was tested, and the IC50 was > 10 µM (inactive).
`CC(=O)Nc1ccc(-c2n[nH]c(=O)cc2C)cc1` was tested, and the IC50 was > 10 µM (inactive).
For `C[C@@H]1CC(=O)NN=C1c1ccc(N2CCOCC2)cc1` (racemic), the IC50 was > 10 µM (inactive).
`C[C@@H]1CC(=O)NN=C1c1ccc([Si](C)(C)C)cc1` was tested, and the IC50 was > 10 µM (inactive).
For `Cc1cc(=O)[nH]nc1-c1ccc(N)cc1`, the IC50 was > 10 µM (inactive).
In the case of `CC(=O)Nc1ccc(C2=NNC(=O)C[C@H]2C)cc1`, the IC50 is reported as > 10 µM (inactive).
In the case of `CCN(CC)c1ccc(-c2nc(C(C)C)no2)cc1[N+](=O)[O-]`, the IC50 is reported as > 10 µM (inactive).
For `CCN(CC)c1ccc(C2=NNC(=O)C2(C)C)cc1`, the IC50 was > 10 µM (inactive).
With `CC1CC(=O)NN=C1c1ccc(N2CCOCC2)c(F)c1` (stereo not drawn) the IC50 was > 10 µM (inactive).
With `Cc1ccc(CCC(=O)N2CCN(c3ccc(C4=NNC(=O)CC4C)cc3)CC2)cc1` (stereo not drawn) the IC50 was > 10 µM (inactive).
For `C[C@@H]1CC(=O)NN=C1c1ccc(I)cc1`, the IC50 was > 10 µM (inactive).
In the case of `CC1(C)C(=O)NN=C1c1ccc(N)cc1`, the IC50 is reported as > 10 µM (inactive).
`C[C@H]1CC(=O)NN=C1c1ccc(F)c(F)c1` was tested, and the IC50 was > 10 µM (inactive).
With `C[C@@H]1CC(=O)NN=C1c1ccc(N)c(Br)c1` the IC50 was > 10 µM (inactive).
In the case of `CC1CC(=O)N(c2ccccc2)N=C1c1ccc(Cl)cc1` (stereo not drawn), the IC50 is reported as > 10 µM (inactive).
With `CCNc1ccc(C2=NNC(=O)C[C@H]2C)cc1[N+](=O)[O-]` the IC50 was > 10 µM (inactive).
In the case of `CCN(CC)c1ccc(-c2n[nH]c(=O)cc2C)cc1`, the IC50 is reported as > 10 µM (inactive).
`C[C@@H]1CC(=O)NN=C1c1ccc(C2=CCCCC2)cc1` was tested, and the IC50 was > 10 µM (inactive).
`CC1(C)C(=O)NN=C1c1ccc([N+](=O)[O-])cc1` was tested, and the IC50 was > 10 µM (inactive).
For `CC1(C)C(=O)NN=C1c1ccc(Cl)cc1`, the IC50 was > 10 µM (inactive).
With `CCN(CC)c1ccc(C2=NNC(=O)CC2C)cc1NCCOCCOCCNC(=O)OC(C)(C)C` (stereo not drawn) the IC50 was > 10 µM (inactive).
For `C[C@@H]1CC(=O)NN=C1c1ccc(N2CCCCC2)cc1`, the IC50 was > 10 µM (inactive).
With `C[C@@H]1CC(=O)NN=C1c1ccc(N2CCCOC2=O)cc1` the IC50 was > 10 µM (inactive).
With `CC(=O)Nc1ccc(C2=NNC(=O)C[C@H]2C)cc1[N+](=O)[O-]` the IC50 was > 10 µM (inactive).
For `CC(=O)Nc1ccc(C2=NNC(=O)C[C@H]2C)cc1C(C)=O`, the IC50 was > 10 µM (inactive).
With `C[C@@H]1CC(=O)NN=C1c1ccc(N2CCOCC2)cc1` the IC50 was > 10 µM (inactive).
For `CC(=O)Nc1ccc(C2=NNC(=O)C[C@H]2C)cc1Br`, the IC50 was > 10 µM (inactive).
With `C[C@@H]1CC(=O)NN=C1c1ccc(N2CCOCC2)c(F)c1` the IC50 was > 10 µM (inactive).
In the case of `C[C@@H]1CC(=O)NN=C1c1ccc(N2CCN(C)CC2)cc1`, the IC50 is reported as > 10 µM (inactive).
With `CCN(CC)c1ccc(C(=O)Nc2ccccc2)cc1[N+](=O)[O-]` the IC50 was > 10 µM (inactive).
For `O=C1CC(c2ccccc2)=NN1`, the IC50 was > 10 µM (inactive).
For `CC(=O)Nc1ccc(C2=NNC(=O)C[C@H]2C)cc1N`, the IC50 was > 10 µM (inactive).
